Experimental data published in US6737383B1, “Herbicidal oxadiazolidines” (priority 1999, dated 2004).

How the values were obtained:
redroot pigweed = test: Test C postemergence redroot pigweed; format: in vivo, Amaranthus retroflexus; settings: 0 to 100 scale, 0 no effect, 100 complete control
Summary of the method: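 In this greenhouse assay, treated and untreated plants were kept for approximately 14 to 21 days following postemergence application, then rated by eye on a scale from 0 (no effect) to 100 (complete control).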

Alexandergrass = test: Test D Alexandergrass; format: in vivo, Brachiaria plantaginea; settings: Preemergence, 0 to 100 scale
Summary of the method: (§1)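 Herbicide screen in the greenhouse. A non-phytotoxic solvent mixture with surfactant carried the test chemical; in pre-emergence tests it went onto the soil of pots seeded no more than a day earlier. Injury was scored by eye 14 to 21 days after application, 0 to 100.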

common pursiane = test: Test D common purslane; format: in vivo, Portulaca oleracea; settings: Preemergence, 0 to 100 scale
Summary of the method: as §1

common ragweed = test: Test D common ragweed; format: in vivo, Ambrosia elatior; settings: Preemergence, 0 to 100 scale
Summary of the method: as §1

dallisgrass = test: Test D dallisgrass; format: in vivo, Paspalum dilatatum; settings: Preemergence, 0 to 100 scale
Summary of the method: as §1

guineagrass = test: Test D guineagrass; format: in vivo, Panicum maximum; settings: Preemergence, 0 to 100 scale
Summary of the method: as §1

itchgrass = test: Test D itchgrass; format: in vivo, Rottboellia exaltata; settings: Preemergence, 0 to 100 scale
Summary of the method: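 Scoring used a 0–100 visual injury scale, with 0 meaning no effect and 100 complete control, assessed 14–21 days after application alongside untreated pots. Preemergence treatments went onto sandy loam surfaces of separately potted seeds within a day of sowing.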

Johnson grass = test: Test D Johnson grass; format: in vivo, Sorghum halepense; settings: Preemergence, 0 to 100 scale
Summary of the method: as §1

large crabgrass = test: Test D large crabgrass; format: in vivo, Digitaria sanguinalis; settings: Preemergence, 0 to 100 scale
Summary of the method: as §1

sandbur = test: Test D sandbur; format: in vivo, Cenchrus echinatus; settings: Preemergence, 0 to 100 scale
Summary of the method: as §1

sourgrass = test: Test D sourgrass; format: in vivo, Trichachne insularis; settings: Preemergence, 0 to 100 scale
Summary of the method: as §1

Spanishneedles = test: Test D Spanishneedles; format: in vivo, Bidens bipinnata; settings: Preemergence, 0 to 100 scale
Summary of the method: as §1

tall mallow = test: Test D tall mallow; format: in vivo, Malva sylvestris; settings: Preemergence, 0 to 100 scale
Summary of the method: as §1

Green foxtail = test: Test D green foxtail; format: in vivo; settings: Preemergence, 0 to 100 scale
Summary of the method: as §1

[1] = Rate 16 g/ha, 0 no injury, 100 complete control
[2] = Rate 32 g/ha, 0 no injury, 100 complete control
[3] = Rate 64 g/ha, 0 no injury, 100 complete control
[4] = Rate 125 g/ha, 0 no injury, 100 complete control

## C=CCn1c(=O)on(C(=O)N(c2ccc(F)cc2)C(C)C)c1=O [Compound 146]
Redroot pigweed; Rate 140 g/ha
  Plant response rating, Redroot pigweed: 0
Redroot pigweed; Rate 1120 g/ha
  Plant response rating, Redroot pigweed: 20
Alexandergrass; [1]
  Plant response rating, Alexandergrass: 65
Alexandergrass; [2]
  Plant response rating, Alexandergrass: 85
Alexandergrass; [3]
  Plant response rating, Alexandergrass: 95
Alexandergrass; [4]
  Plant response rating, Alexandergrass: 98
Alexandergrass; Rate 250 g/ha
  Plant response rating, Alexandergrass: 100
Alexandergrass; Rate 500 g/ha
  Plant response rating, Alexandergrass: 100
Common pursiane; [1]
  Plant response rating, C. purslane: 0
Common pursiane; [2]
  Plant response rating, C. purslane: 0
Common pursiane; [3]
  Plant response rating, C. purslane: 0
Common pursiane; [4]
  Plant response rating, C. purslane: 0
Common pursiane; Rate 250 g/ha
  Plant response rating, C. purslane: 0
Common pursiane; Rate 500 g/ha
  Plant response rating, C. purslane: 0
Common ragweed; [1]
  Plant response rating, C. ragweed: 0
Common ragweed; [2]
  Plant response rating, C. ragweed: 0
Common ragweed; [3]
  Plant response rating, C. ragweed: 0
Common ragweed; [4]
  Plant response rating, C. ragweed: 0
Common ragweed; Rate 250 g/ha
  Plant response rating, C. ragweed: 60
Common ragweed; Rate 500 g/ha
  Plant response rating, C. ragweed: 75
dallisgrass; [1]
  Plant response rating, Dallisgrass: 80
dallisgrass; [2]
  Plant response rating, Dallisgrass: 90
dallisgrass; [3]
  Plant response rating, Dallisgrass: 98
dallisgrass; [4]
  Plant response rating, Dallisgrass: 100
dallisgrass; Rate 250 g/ha
  Plant response rating, Dallisgrass: 100
dallisgrass; Rate 500 g/ha
  Plant response rating, Dallisgrass: 100
guineagrass; [1]
  Plant response rating, Guineagrass: 90
guineagrass; [2]
  Plant response rating, Guineagrass: 95
guineagrass; [3]
  Plant response rating, Guineagrass: 100
guineagrass; [4]
  Plant response rating, Guineagrass: 100
guineagrass; Rate 250 g/ha
  Plant response rating, Guineagrass: 100
guineagrass; Rate 500 g/ha
  Plant response rating, Guineagrass: 100
itchgrass; [1]
  Plant response rating, Itchgrass: 85
itchgrass; [2]
  Plant response rating, Itchgrass: 90
itchgrass; [3]
  Plant response rating, Itchgrass: 90
itchgrass; [4]
  Plant response rating, Itchgrass: 90
itchgrass; Rate 250 g/ha
  Plant response rating, Itchgrass: 100
itchgrass; Rate 500 g/ha
  Plant response rating, Itchgrass: 100
Johnson grass; [1]
  Plant response rating Johnsongrass: 60
Johnson grass; [2]
  Plant response rating Johnsongrass: 60
Johnson grass; [3]
  Plant response rating Johnsongrass: 60
Johnson grass; [4]
  Plant response rating Johnsongrass: 80
Johnson grass; Rate 250 g/ha
  Plant response rating Johnsongrass: 90
Johnson grass; Rate 500 g/ha
  Plant response rating Johnsongrass: 95
Large crabgrass; [1]
  Plant response rating Large crabgrass: 90
Large crabgrass; [2]
  Plant response rating Large crabgrass: 100
Large crabgrass; [3]
  Plant response rating Large crabgrass: 100
Large crabgrass; [4]
  Plant response rating Large crabgrass: 100
Large crabgrass; Rate 250 g/ha
  Plant response rating Large crabgrass: 100
Large crabgrass; Rate 500 g/ha
  Plant response rating Large crabgrass: 100
sandbur; [1]
  Plant response rating, Sandbur: 0
sandbur; [2]
  Plant response rating, Sandbur: 85
sandbur; [3]
  Sandbur plant response rating: 100
sandbur; [4]
  Sandbur plant response rating: 100
sandbur; Rate 250 g/ha
  Plant response rating, Sandbur: 100
sandbur; Rate 500 g/ha
  Plant response rating, Sandbur: 100
sourgrass; [1]
  Plant response rating, Sourgrass: 0
sourgrass; [2]
  Plant response rating, Sourgrass: 98
sourgrass; [3]
  Sourgrass plant response rating: 100
sourgrass; [4]
  Sourgrass plant response rating: 100
sourgrass; Rate 250 g/ha
  Plant response rating, Sourgrass: 100
sourgrass; Rate 500 g/ha
  Plant response rating, Sourgrass: 100
Spanishneedles; [1]
  Plant response rating, Spanishneedles: 0
Spanishneedles; [2]
  Plant response rating, Spanishneedles: 75
Spanishneedles; [3]
  Spanishneedles plant response rating: 85
Spanishneedles; [4]
  Spanishneedles plant response rating: 90
Spanishneedles; Rate 250 g/ha
  Plant response rating, Spanishneedles: 100
Spanishneedles; Rate 500 g/ha
  Plant response rating, Spanishneedles: 100
Tall mallow; [1]
  Plant response rating, Tall Mallow: 40
Tall mallow; [2]
  Plant response rating, Tall Mallow: 40
Tall mallow; [3]
  Tall Mallow plant response rating: 50
Tall mallow; [4]
  Tall Mallow plant response rating: 80
Tall mallow; Rate 250 g/ha
  Plant response rating, Tall Mallow: 90
Tall mallow; Rate 500 g/ha
  Plant response rating, Tall Mallow: 100
Green foxtail; [3]
  Green foxtail plant response rating: 100
  Plant response rating, Green foxtail: 100
Green foxtail; [4]
  Green foxtail plant response rating: 100
  Plant response rating, Green foxtail: 100
Green foxtail; Rate 250 g/ha
  Plant response rating, Green foxtail: 100
Green foxtail; Rate 500 g/ha
  Plant response rating, Green foxtail: 100

## Cc1ccc(N(C(=O)n2oc(=O)n(C(C)C)c2=O)C(C)C)cc1 [Compound 132]
Redroot pigweed; Rate 140 g/ha
  Plant response rating, Redroot pigweed: 0
Redroot pigweed; Rate 280 g/ha
  Plant response rating, Redroot pigweed: 10
Redroot pigweed; Rate 1120 g/ha
  Plant response rating, Redroot pigweed: 30
Alexandergrass; [3]
  Plant response rating, Alexandergrass: 98
Common pursiane; [3]
  Plant response rating, C. purslane: 10
Common ragweed; [3]
  Plant response rating, C. ragweed: 0
dallisgrass; [3]
  Plant response rating, Dallisgrass: 98
guineagrass; [3]
  Plant response rating, Guineagrass: 85
itchgrass; [3]
  Plant response rating, Itchgrass: 10
Johnson grass; [3]
  Plant response rating Johnsongrass: 35
Large crabgrass; [3]
  Plant response rating Large crabgrass: 100
sandbur; [3]
  Sandbur plant response rating: 0
sourgrass; [3]
  Plant response rating, Sourgrass: 100
Spanishneedles; [3]
  Spanishneedles plant response rating: 0
Tall mallow; [3]
  Tall Mallow plant response rating: 40
Green foxtail; [3]
  Green foxtail plant response rating: 100
  Plant response rating, Green foxtail: 100
